14 compounds from US10975092B2, “Pyrimidine seven-membered-ring compounds, preparation method therefor, pharmaceutical composition thereof, and uses thereof” (priority 2016, dated 2021) can be followed below.

The target of assay [1] is T1, recombinant Mst1 (Homo sapiens, UniProt Q13043).
T1 sequence (Q13043 1-487): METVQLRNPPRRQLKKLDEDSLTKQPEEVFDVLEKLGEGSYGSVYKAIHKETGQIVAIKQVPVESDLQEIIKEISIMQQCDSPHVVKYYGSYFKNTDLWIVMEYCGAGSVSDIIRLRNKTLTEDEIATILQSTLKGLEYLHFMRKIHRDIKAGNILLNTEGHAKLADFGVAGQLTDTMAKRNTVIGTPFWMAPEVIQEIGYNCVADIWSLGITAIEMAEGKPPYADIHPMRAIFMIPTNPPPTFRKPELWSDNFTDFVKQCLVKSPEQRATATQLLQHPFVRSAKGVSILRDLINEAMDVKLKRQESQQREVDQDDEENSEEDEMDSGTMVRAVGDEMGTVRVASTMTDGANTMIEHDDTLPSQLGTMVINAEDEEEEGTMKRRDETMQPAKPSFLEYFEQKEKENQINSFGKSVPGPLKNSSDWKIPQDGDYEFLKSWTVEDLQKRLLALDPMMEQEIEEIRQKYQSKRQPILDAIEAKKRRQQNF
Nature of the assay: Inhibition of Mst1 kinase activity, ELISA of Mob1 substrate phosphorylation. Format: biochemical. The note with it: MST1 IC50, recombinant Mst1 11 nM; ATP 6.7 gIVI; GST-Mob1a substrate; 30° C. 15 min. As to the method:
(§1) We adopt a specific ELISA (Enzyme-linked immunosorbent assay) assay for measuring the biochemical activity (FIG. 1).
(§2) Specific methods are as follows:
(§3) 1. The substrate was diluted with purified recombinant GST-Mobla 200 nM in coating buffer, added to 96-well plates (Nalge Nunc International, Denmark), coated for overnight at 4° C., washed nextday three times with rinsing solution;
(§4) a. A kinase reaction buffer;
(§5) c. compound (dissolved in DMSO, containing not more than 1% of the total volume of the reaction);
(§6) Control Group Containing No ATP or Kinase;
(§7) 3. The reaction solution was poured to terminate the kinase reaction, and washed 4 times with rinse solution, 5 minutes each wash;
(§8) 4. Add 200 μL, per well of the blocking solution, shaking for 1 hour at room temperature, washed 4 times with rinsing solution;
(§9) 7. Add TMB chromogenic solution (Biolegend, Cat.B200119, B200120). After the color reaction to a certain extent, add to each well 100 μL, of 2M H2SO4 to terminate the reaction;
(§10) 8. […] Each set of three parallel experiments, the negative control is a solution with a final concentration of 1% DMSO, the control is the reaction system containing no ATP. […] The reagents are as follows: Coating Buffer: 0.1M NaHCO 3, 0.033M Na2CO3, pH 9.5 Rinse solution: 0.05% Tween-20 in PBS Reaction buffer: 40 mM of Hepes-NaOH (pH 7.4), 10 mM of MgCl2, 1 mM of dithiothreitol (DTT), 1 mM of NaF, 1 mM of Na3VO4, 1 mM of β-glycerophosphate Blocking solution: 1% BSA dissolved in PBS Compound Inhibition of Kinase Activity

In assay [2] the target is T2, recombinant MST2 (Homo sapiens, UniProt Q13188).
T2 sequence (Q13188 1-491): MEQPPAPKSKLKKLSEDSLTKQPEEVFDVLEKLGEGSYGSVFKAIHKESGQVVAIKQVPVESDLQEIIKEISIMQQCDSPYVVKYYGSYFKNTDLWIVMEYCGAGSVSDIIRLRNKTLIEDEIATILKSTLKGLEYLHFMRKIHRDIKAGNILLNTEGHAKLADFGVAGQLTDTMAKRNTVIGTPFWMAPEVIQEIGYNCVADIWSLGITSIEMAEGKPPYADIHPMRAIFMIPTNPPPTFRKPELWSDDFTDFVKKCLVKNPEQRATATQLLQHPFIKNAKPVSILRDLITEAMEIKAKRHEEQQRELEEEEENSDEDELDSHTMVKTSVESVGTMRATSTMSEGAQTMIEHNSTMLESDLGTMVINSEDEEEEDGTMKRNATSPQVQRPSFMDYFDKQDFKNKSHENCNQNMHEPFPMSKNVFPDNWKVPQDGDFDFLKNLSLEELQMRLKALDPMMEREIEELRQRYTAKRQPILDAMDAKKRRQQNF
Nature of the assay: Inhibition of Mst2 kinase activity, ELISA of Mob1 substrate phosphorylation. Format: biochemical. The note with it: MST2 IC50, 3.7 nM recombinant MST2; ATP 11.2 gIVI; GST-Mob1a substrate; 30° C. 15 min. As to the method:
as §1, §2, §3, §4, §5, §6, §7, §8, §9, §10

Assay [3] has as its system wild type mice after hepatectomy. Nature of the assay: Liver regeneration after partial liver resection (hepatectomy) in mice. Format: in vivo. Conditions: about 2/3 hepatectomy, 1 mg/kg body weight intraperitoneally twice daily, 1-7 days. As for the experimental part:
Student's t-test in comparing drug-treated group and control group, *P<0.05, ***P<0.001.
8-10 week old wild type mice were anesthetized with intraperitoneal pentobarbital (80 mg/kg body weight). Hepatectomy was performed to remove left rear and intermediate liver lobes, about ⅔ of the entire liver. […] Mice after hepatectomy of 1, 2, 3, 4, 5, 6, or 7 days were sacrificed. Mouse body weight and liver weight are recorded and used to calculate the weight ratio of the liver (FIG. 2a). Liver tissue section used in immunohistochemistry to detect proliferating hepatocytes (of Ki67-positive) percentage.

Assay [4] deals with DSS-treated wild type mice. Nature of the assay: Intestinal repair in DSS-induced intestinal injury mouse model. Format: in vivo. As for the experimental part: 8-10 week old wild type mice were fed with water containing 2.5% DSS (MW 36-50 kDa, Cat. #160110, MP Biochemical) for 7 days, then switch to conventional drinking water. […] Throughout the experiment, the body weight of mice was weighed every day at a fixed time and calculate the ratio of the weight and the weight before DSS feeding. […] The DAI values were calculated as follows: the integrity of the stool (value 0-3, where 0: full dried fecal pellets; 1: soft particles; 2: loose, wet stool; 3: diarrhea); detection of intestinal bleeding with tolidine (o-tolidine) (value 0-3, where 0: detection reagent was added for 2 minutes, sample no color; 1: detection reagent was added, the sample within 10 seconds from light blue to blue; 2: after adding detection reagents, samples gradually changed from light brown to brown clear blue and a visible color in the feces; 3: after adding detection reagents, samples rapidly becoming brownish blue, significant blood and bleeding in a anus and feces. The body weight change in mice and DAI values were recorded for indicating the degree of intestinal injury repair.

For the compound `CN1C(=O)c2sccc2N(C)c2nc(Nc3ccc(S(N)(=O)=O)cc3)ncc21` [II-1], the concentration for half-maximal inhibition (IC50) (as a rule, the concentration that inhibits the measured activity by half) came out at 0.14 µM in assay [1] and 0.04 µM in assay [2]. Besides, in assay [3], the “Liver regeneration after partial liver resection (liver/body weight ratio, Ki67-positive hepatocytes)” value is “Effective in Promoting Liver Regeneration”. In addition, in assay [4] (2.5% DSS in water 7 days, 1 mg/kg body weight injected once per day), the “Intestinal repair in DSS-induced intestinal injury model” value is “promotes intestinal repair”. For the same compound, the “Body weight of DSS-treated mice” value in assay [4] (2.5% DSS in water 7 days, 1 mg/kg once per day, FIG. 3a) is “significantly increase”. Further, the “Intestinal injury clinical symptoms (disease activity index, DAI)” value in assay [4] (2.5% DSS in water 7 days, 1 mg/kg once per day, FIG. 3b) is on record as “slow the intestinal injury clinical symptoms”. Moreover, the “Yap activity in intestinal epithelial cells (immunohistochemical staining)” value in assay [4] (day 8 after DSS water feeding, 1 mg/kg once per day, FIG. 3c) is “increases Yap activity”. Also, in assay [4] (day 8 after DSS water feeding, 1 mg/kg once per day, FIG. 3c-e), the “Epithelial repair and cell proliferation (BrdU and Ki67 positive cells in intestinal tissue)” value was “promote epithelial repair and cell proliferation”.
Regarding `CN1CCN(C(=O)c2ccc(Nc3ncc4c(n3)N(C)c3ccsc3C(=O)N4C)cc2)CC1` [II-17], the IC50 in assay [1] was 0.61 µM; in assay [2], 2.51 µM.
For `CN1C(=O)c2sccc2N(C)c2nc(Nc3ccc(NC(=O)CCl)cc3)ncc21` [II-18], the figures for the IC50 in assay [1] and in assay [2] were 3.34 µM and 13 µM, respectively.
As to `CN1C(=O)c2sccc2N(C)c2nc(Nc3ccc(NC(=O)CBr)cc3)ncc21` [II-19], the IC50 amounted to 3.03 µM in assay [1] and 12.6 µM in assay [2].
As to `CN1CCC(n2cc(Nc3ncc4c(n3)N(C)c3ccsc3C(=O)N4C)cn2)CC1` [II-20], the results for the IC50 in assay [1] and in assay [2] were 0.11 µM and 2.32 µM, respectively.
Turning to `CN1CCN(c2ccc(Nc3ncc4c(n3)N(C)c3ccsc3C(=O)N4C)cc2)CC1` [II-21], the IC50 in assay [1] amounted to 0.25 µM; in assay [2], 3.1 µM.
In the case of `C=CC(=O)Nc1ccc(Nc2ncc3c(n2)N(C)c2ccsc2C(=O)N3C)cc1` [II-23], the IC50 in assay [1] came to 0.77 µM; in assay [2] it was 4.76 µM.
On to `CN1CCN(C2CCN(C(=O)c3ccc(Nc4ncc5c(n4)N(C)c4ccsc4C(=O)N5C)cc3)CC2)CC1` [II-24], for which the IC50 was 0.22 µM in assay [1] and 2.25 µM in assay [2].
On to `CN1C(=O)c2sccc2N(C)c2nc(Nc3ccc(OC(=O)CCl)cc3)ncc21` [II-25], for which the IC50 in assay [1] amounted to 0.58 µM; in assay [2] it was 2.24 µM.
As to `C=CS(=O)(=O)Nc1ccc(Nc2ncc3c(n2)N(C)c2ccsc2C(=O)N3C)cc1` [II-26], the IC50 in assay [1] amounted to 0.82 µM; in assay [2] it was 0.41 µM.
Turning to `CN1C(=O)c2sccc2N(C)c2nc(Nc3cn[nH]c3)ncc21` [II-28], the figures for the IC50 in assay [1] and in assay [2] were 0.54 µM and 0.36 µM, respectively.
Take `CN1C(=O)c2sccc2N(C)c2nc(Nc3cnn(C(=O)CCl)c3)ncc21` [II-30]: the IC50 in assay [1] was found to be 0.81 µM; in assay [2] it was 0.44 µM.
Taken in the same sequence, the figures for `CN1C(=O)c2cccc3c2N(CC3)c2nc(Nc3ccc(NS(C)(=O)=O)cc3)ncc21` [IV-1] were 6.07 µM and 3.97 µM.
In the case of `CN1C(=O)c2cccc3c2N(CC3)c2nc(Nc3ccc(S(N)(=O)=O)cc3)ncc21` [IV-3], the results for the IC50 in assay [1] and in assay [2] were 0.43 µM and 1.61 µM, respectively.
